This passage reports IC50 results from patent publication US20250179073A1, “TRICYCLIC HETEROCYCLE COMPOUNDS AS IAP ANTAGONISTS” (Ascentage Pharma (Suzhou) Co., Ltd., priority 2022, published 2025).

In general, IC50 refers to the concentration at which inhibition is half-maximal.

In assay [1] the test system is MDA-MB-231 cells. The assay can be described thus: Cell proliferation assay (CellTiter-Glo), MDA-MB-231. The assay is classed as cell-based. The note with it: Homo sapiens, MDA-MB-231, 72 h, 72 h treatment, Celltiter-Glo luminescence. The gist of the method:
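Compounds tested over ten concentrations ([…]) for 72 h on EVSA-T cells in MEM/10% FBS and MDA-MB-231 cells in RPMI-1640/10% FBS, seeded at 10000/well. Luminescent CellTiter-Glo readout; IC50 fitted after normalisation to controls.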
(In ATP-based viability assays light output follows the ATP content of the culture.)

The test system of assay [2] is EVSA-T cells. The assay can be described thus: Cell proliferation assay (CellTiter-Glo), EVSA-T. Type of assay: cell-based. The note with it: Homo sapiens, EVSA-T, 72 h, 72 h treatment, Celltiter-Glo luminescence. As to the method:
Example 238: Cell Proliferation Assay
MDA-MB-231 and EVSA-T cells (10000 cells/well) were plated onto 96-well plates (Corning, Cat #3917) in 95 μL of medium (RPMI-1640 containing 10% FBS and MEM containing 10% FBS, respectively). Compounds with various concentrations ([…]) were added to the wells. After treatment for 72 h, 30 μL of Celltiter-Glo reagent (Promega, Cat #G7573) was added and incubated at room temperature for 15 min, then the luminescent signal was determined using a microplate reader (Biotek, SynergyH1). The inhibitor dose-response curves were analyzed using normalized IC50 regression curve fitting with control based normalization.

Consider `C[C@@H]1CN(CC(=O)N2CC(C)(C)c3c2cc(Cc2ccc(F)cc2)c2nc(C#N)nn32)[C@@H](CN2CCOC[C@H]2C)CN1` [Compound 32, 4-(4-fluorobenzyl)-8,8-dimethyl-6-(2-((2R,5R)-5-methyl-2-(((R)-3-methylmorpholino)methyl)piperazin-1-yl)acetyl)-7,8-dihydro-6H-pyrrolo[2,3-e][1,2,4]triazolo[1,5-a]pyridine-2-carbonitrile], for which the IC50 in assay [1] came to 60 nM; in assay [2] it was 20 nM.

On to `C[C@@H]1CN(CC(=O)N2CC(C)(C)c3c2cc(Cc2ccc(F)cc2)n2ncnc32)[C@@H](CN2CCOC[C@H]2C)CN1` [Example 25, 1-(5-(4-fluorobenzyl)-9,9-dimethyl-8,9-dihydro-7H-pyrrolo[3,2-c][1,2,4]triazolo[1,5-a]pyridin-7-yl)-2-((2R,5R)-5-methyl-2-(((R)-3-methylmorpholino)methyl)piperazin-1-yl)ethan-1-one], for which the IC50 in assay [1] turned out to be 84 nM; in assay [2], 11 nM.

For `C[C@@H]1CN(CC(=O)N2CC(C)(C)c3c2cc(Cc2ccc(F)cc2)c2nc(C(F)F)cn32)[C@@H](CN2CCOC[C@H]2C)CN1` [Compound 122, 1-(2-(difluoromethyl)-4-(4-fluorobenzyl)-8,8-dimethyl-7,8-dihydro-6H-imidazo[1,2-a]pyrrolo[2,3-e]pyridin-6-yl)-2-((2R,5R)-5-methyl-2-(((R)-3-methylmorpholino)methyl)piperazin-1-yl)ethan-1-one], the figures for the IC50 in assay [1] and in assay [2] were 65 nM and 6 nM, respectively.

Take `C[C@@H]1CN(CC(=O)N2CC(C)(C)c3c2cc(Cc2ccc(F)cc2)c2nn(C)c(=O)n32)[C@@H](CN2CCOC[C@H]2C)CN1` [Compound 135, 4-(4-fluorobenzyl)-2,8,8-trimethyl-6-(2-((2R,5R)-5-methyl-2-(((R)-3-methylmorpholino)methyl)piperazin-1-yl)acetyl)-2,6,7,8-tetrahydro-1H-pyrrolo[2,3-e][1,2,4]triazolo[4,3-a]pyridin-1-one]: the figures for the IC50 in assay [1] and in assay [2] were 40 nM and 4 nM, respectively.

With `Cc1ncc(Cc2cc3c(n4ncnc24)C(C)(C)CN3C(=O)CN2C[C@@H](C)NC[C@@H]2CN2CCOC[C@H]2C)s1` [Compound 132, 1-(8,8-dimethyl-4-((2-methylthiazol-5-yl)methyl)-7,8-dihydro-6H-pyrrolo[2,3-e][1,2,4]triazolo[1,5-a]pyridin-6-yl)-2-((2R,5R)-5-methyl-2-(((R)-3-methylmorpholino)methyl)piperazin-1-yl)ethan-1-one], the 50% inhibitory concentration (IC50) in assay [1] was 220 nM; in assay [2], 56 nM.

Regarding `C[C@@H]1CN(CC(=O)N2CC(C)(C)c3c2cc(Cc2ccccc2F)c2ncnn32)[C@@H](CN2CCOC[C@H]2C)CN1` [Compound 38, 1-(4-(2-fluorobenzyl)-8,8-dimethyl-7,8-dihydro-6H-pyrrolo[2,3-e][1,2,4]triazolo[1,5-a]pyridin-6-yl)-2-((2R,5R)-5-methyl-2-(((R)-3-methylmorpholino)methyl)piperazin-1-yl)ethan-1-one], the 50% inhibitory concentration (IC50) was found to be 150 nM in assay [1] and 6 nM in assay [2].

Take `C[C@@H]1CN(CC(=O)N2CC(C)(C)c3c2cc(Cc2ccc(F)cc2)c2nc(C4CC4)nn32)[C@@H](CN2CCOC[C@H]2C)CN1` [Compound 165, 1-(2-cyclopropyl-4-(4-fluorobenzyl)-8,8-dimethyl-7,8-dihydro-6H-pyrrolo[2,3-e][1,2,4]triazolo[1,5-a]pyridin-6-yl)-2-((2R,5R)-5-methyl-2-(((R)-3-methylmorpholino)methyl)piperazin-1-yl)ethan-1-one]: the IC50 in assay [1] was 21 nM; in assay [2], 4 nM.

Regarding `CC(c1ccc(F)cc1)c1cc2c(n3ncnc13)C(C)(C)CN2C(=O)CN1C[C@@H](C)NC[C@@H]1CN1CCOC[C@H]1C` (stereo partly drawn) [Compound 45, 1-(4-(1-(4-fluorophenyl)ethyl)-8,8-dimethyl-7,8-dihydro-6H-pyrrolo[2,3-e][1,2,4]triazolo[1,5-a]pyridin-6-yl)-2-((2R,5R)-5-methyl-2-(((R)-3-methylmorpholino)methyl)piperazin-1-yl)ethan-1-one], the IC50 in assay [1] amounted to 180 nM; in assay [2], 40 nM.
